Converted amounts (≈) assume the structure as drawn.
Legend:
Enterococcus faecalis [1] = assay: In vitro minimum inhibitory concentration against Enterococcus faecalis (STCO-19); type: functional
Staphylococcus aureus [2] = assay: In vitro minimum inhibitory concentration against Staphylococcus aureus (SFCO-1a); type: functional
Staphylococcus aureus [3] = system: Staphylococcus aureus
Enterococcus faecalis [4] = system: Enterococcus faecalis

Compound	MIC (Enterococcus faecalis [1])	MIC (Staphylococcus aureus [2])	MIC (Staphylococcus aureus [3])	MIC (Enterococcus faecalis [4])
CC(=O)c1ccc(N2C[C@H](CNC(=O)C(Cl)Cl)OC2=O)cc1	2 µg/mL (≈ 5.79 µM)	2 µg/mL (≈ 5.79 µM)	–	–
CSc1ccc(N2CC(CCl)OC2=O)cc1 (stereo not given)	> 128 µg/mL	> 128 µg/mL	–	–
CC(=O)c1ccc(N2CC(COP(=O)(O)O)OC2=O)cc1 (stereo not given)	> 128 µg/mL	> 128 µg/mL	–	–
CSc1ccc(N2CC(CO)OC2=O)cc1 (stereo not given)	128 µg/mL (≈ 535 µM)	128 µg/mL (≈ 535 µM)	–	–
CC(=O)c1ccc(N2C[C@H](CNC(=O)CC#N)OC2=O)cc1	8 µg/mL (≈ 26.6 µM)	16 µg/mL (≈ 53.1 µM)	–	–
CC(=O)c1ccc(N2C[C@H](CNC(=O)OC(C)(C)C)OC2=O)cc1	128 µg/mL (≈ 383 µM)	128 µg/mL (≈ 383 µM)	–	–
COC(=O)NC[C@H]1CN(c2ccc(C(C)=O)cc2)C(=O)O1	4 µg/mL (≈ 13.7 µM)	4 µg/mL (≈ 13.7 µM)	–	–
CC(=O)c1ccc(N2CC(CO)OC2=O)cc1 (stereo not given)	16 µg/mL (≈ 68 µM)	16 µg/mL (≈ 68 µM)	–	–
CC(=O)c1ccc(N2CC(CN)OC2=O)cc1.Cl (stereo not given)	> 128 µg/mL	> 128 µg/mL	–	–
CC1=C(C(=O)O)N2C(=O)[C@@H](NC(=O)[C@H](N)c3ccccc3)[C@H]2SC1 [CEPHALEXIN ANHYDROUS]	64 µg/mL (≈ 184 µM)	0.5 µg/mL (≈ 1.44 µM)	–	–
CC1CN(c2ccc(S(C)(=O)=O)cc2)C(=O)O1 (stereo not given)	128 µg/mL (≈ 501 µM)	64 µg/mL (≈ 251 µM)	–	–
C[S+]([O-])c1ccc(N2CC(CCl)OC2=O)cc1 (stereo not given)	32 µg/mL (≈ 117 µM)	32 µg/mL (≈ 117 µM)	–	–
CCC1CN(c2ccc(S(C)(=O)=O)cc2)C(=O)O1 (stereo not given)	128 µg/mL (≈ 475 µM)	128 µg/mL (≈ 475 µM)	–	–
CC(=O)c1ccc(N2CC(COS(=O)(=O)c3ccc(C)cc3)OC2=O)cc1 (stereo not given)	8 µg/mL (≈ 20.5 µM)	8 µg/mL (≈ 20.5 µM)	–	–
CC(=O)NC[C@H]1CN(c2ccc(C(C)=O)cc2)C(=O)O1 [DUP-721]	1 µg/mL (≈ 3.62 µM)	0.5 µg/mL (≈ 1.81 µM)	–	–
CC(=O)NCC1CN(c2ccc(S(N)(=O)=O)cc2)C(=O)O1 (stereo not given)	16 µg/mL (≈ 51.1 µM)	32 µg/mL (≈ 102 µM)	–	–
CCC(=O)NC[C@H]1CN(c2ccc(C(C)=O)cc2)C(=O)O1	4 µg/mL (≈ 13.8 µM)	4 µg/mL (≈ 13.8 µM)	–	–
NS(=O)(=O)c1ccc(N2CC(CO)OC2=O)cc1 (stereo not given)	128 µg/mL (≈ 470 µM)	128 µg/mL (≈ 470 µM)	–	–
CC(=O)NCC(=O)NC[C@H]1CN(c2ccc(C(C)=O)cc2)C(=O)O1	> 128 µg/mL	128 µg/mL (≈ 384 µM)	–	–
CC(=O)c1ccc(N2C[C@H](CNC=O)OC2=O)cc1	8 µg/mL (≈ 30.5 µM)	4 µg/mL (≈ 15.3 µM)	–	–

Compound	MIC (Enterococcus faecalis [1])	MIC (Staphylococcus aureus [2])	MIC (Staphylococcus aureus [3])	MIC (Enterococcus faecalis [4])
GENTAMICIN	–	–	0.25 µg/mL	16 µg/mL
COCC(=O)NC[C@H]1CN(c2ccc(C(C)=O)cc2)C(=O)O1	32 µg/mL (≈ 104 µM)	32 µg/mL (≈ 104 µM)	–	–
CC(C)c1ccc(N2CC(CCl)OC2=O)cc1 (stereo not given)	64 µg/mL (≈ 252 µM)	64 µg/mL (≈ 252 µM)	–	–
CCC1CN(c2ccc(C(C)C)cc2)C(=O)O1 (stereo not given)	> 128 µg/mL	> 128 µg/mL	–	–
COC(=O)c1nnn(CC2CN(c3ccc(C(C)=O)cc3)C(=O)O2)c1C(=O)OC (stereo not given)	> 128 µg/mL	> 128 µg/mL	–	–
CC(=O)NCC1CN(c2ccc(C(C)C)cc2)C(=O)O1 (stereo not given)	4 µg/mL (≈ 14.5 µM)	4 µg/mL (≈ 14.5 µM)	–	–
CC(=O)c1ccc(N2C[C@H](CNC(=O)C(C)C)OC2=O)cc1	16 µg/mL (≈ 52.6 µM)	8 µg/mL (≈ 26.3 µM)	–	–
CC(=O)c1ccc(N2CC(CCl)OC2=O)cc1 (stereo not given)	64 µg/mL (≈ 252 µM)	32 µg/mL (≈ 126 µM)	–	–
CSc1ccc(N2CC(C)OC2=O)cc1 (stereo not given)	> 128 µg/mL	> 128 µg/mL	–	–
CS(=O)(=O)c1ccc(N2CC(CO)OC2=O)cc1 (stereo not given)	16 µg/mL (≈ 59 µM)	16 µg/mL (≈ 59 µM)	–	–
CC(=O)OCC1CN(c2ccc(C(C)C)cc2)C(=O)O1 (stereo not given)	128 µg/mL (≈ 462 µM)	128 µg/mL (≈ 462 µM)	–	–
C=CC1CN(c2ccc(C(C)=O)cc2)C(=O)O1 (stereo not given)	> 128 µg/mL	> 128 µg/mL	–	–
C[S+]([O-])c1ccc(N2CC(CO)OC2=O)cc1 (stereo not given)	64 µg/mL (≈ 251 µM)	64 µg/mL (≈ 251 µM)	–	–
CC(=O)c1ccc(N2C[C@H](CNC(=O)C3CC3)OC2=O)cc1	4 µg/mL (≈ 13.2 µM)	8 µg/mL (≈ 26.5 µM)	–	–
CCCC(=O)OCC1CN(c2ccc(C(C)=O)cc2)C(=O)O1 (stereo not given)	> 128 µg/mL	64 µg/mL (≈ 210 µM)	–	–
CC(=O)c1ccc(N2CC(CN)OC2=O)cc1 (stereo not given)	> 128 µg/mL	> 128 µg/mL	–	–
CSc1ccc(N2CC(CNC(C)=O)OC2=O)cc1 (stereo not given)	4 µg/mL (≈ 14.3 µM)	4 µg/mL (≈ 14.3 µM)	–	–
CC(=O)NCC1CN(c2ccc([S+](C)[O-])cc2)C(=O)O1 (stereo not given)	4 µg/mL (≈ 13.5 µM)	4 µg/mL (≈ 13.5 µM)	–	–
CC(=O)c1ccc(N2CC(CF)OC2=O)cc1 (stereo not given)	128 µg/mL (≈ 540 µM)	64 µg/mL (≈ 270 µM)	–	–
CC(=O)NCC1CN(c2ccc(S(C)(=O)=O)cc2)C(=O)O1 (stereo not given)	4 µg/mL (≈ 12.8 µM)	4 µg/mL (≈ 12.8 µM)	–	–

Compound	MIC (Enterococcus faecalis [1])	MIC (Staphylococcus aureus [2])	MIC (Staphylococcus aureus [3])	MIC (Enterococcus faecalis [4])
CC(=O)CC(=O)NC[C@H]1CN(c2ccc(C(C)=O)cc2)C(=O)O1	16 µg/mL (≈ 50.3 µM)	8 µg/mL (≈ 25.1 µM)	–	–
NS(=O)(=O)c1ccc(N2CC(CCl)OC2=O)cc1 (stereo not given)	> 128 µg/mL	16 µg/mL (≈ 55 µM)	–	–
CC(=O)c1ccc(N2CC(CN=[N+]=[N-])OC2=O)cc1 (stereo not given)	> 128 µg/mL	> 128 µg/mL	–	–
CC(=O)c1ccc(N2CC(C)OC2=O)cc1 (stereo not given)	> 128 µg/mL	> 128 µg/mL	–	–
CC(C)c1ccc(N2CC(CN=[N+]=[N-])OC2=O)cc1 (stereo not given)	> 128 µg/mL	> 128 µg/mL	–	–
CC(=O)c1ccc(N2C[C@H](CNC(N)=O)OC2=O)cc1	1 µg/mL (≈ 3.61 µM)	4 µg/mL (≈ 14.4 µM)	–	–
CC1CN(c2ccc(C(C)C)cc2)C(=O)O1 (stereo not given)	128 µg/mL (≈ 584 µM)	128 µg/mL (≈ 584 µM)	–	–
CC(=O)c1ccc(N2C[C@H](CNC(=O)CSC#N)OC2=O)cc1	32 µg/mL (≈ 96 µM)	32 µg/mL (≈ 96 µM)	–	–
CC(C)c1ccc(N2CC(CO)OC2=O)cc1 (stereo not given)	32 µg/mL (≈ 136 µM)	64 µg/mL (≈ 272 µM)	–	–
CS(=O)(=O)c1ccc(N2CC(CCl)OC2=O)cc1 (stereo not given)	4 µg/mL (≈ 13.8 µM)	8 µg/mL (≈ 27.6 µM)	–	–
[N-]=[N+]=NCC1CN(c2ccc(S(N)(=O)=O)cc2)C(=O)O1 (stereo not given)	64 µg/mL (≈ 215 µM)	32 µg/mL (≈ 108 µM)	–	–
CN[C@H](CC(C)C)C(=O)N[C@H]1C(=O)N[C@@H](CC(N)=O)C(=O)N[C@H]2C(=O)N[C@H]3C(=O)N[C@H](C(=O)N[C@H](C(=O)O)c4cc(O)cc(O)c4-c4cc3ccc4O)[C@H](O)c3ccc(c(Cl)c3)Oc3cc2cc(c3O[C@@H]2O[C@H](CO)[C@@H](O)[C@H](O)[C@H]2O[C@H]2C[C@](C)(N)[C@H](O)[C@H](C)O2)Oc2ccc(cc2Cl)[C@H]1O [VANCOMYCIN]	2 µg/mL (≈ 1.38 µM)	–	–	–
CC(=O)c1ccc(N2C[C@H](CNC(=O)N(C)C)OC2=O)cc1	128 µg/mL (≈ 419 µM)	128 µg/mL (≈ 419 µM)	–	–
CS(=O)(=O)c1ccc(N2CC(CN)OC2=O)cc1 (stereo not given)	> 128 µg/mL	> 128 µg/mL	–	–
CC(=O)c1ccc(N2CC(CN3C(=O)c4ccccc4C3=O)OC2=O)cc1 (stereo not given)	> 128 µg/mL	> 128 µg/mL	–	–
CCCC(=O)NC[C@H]1CN(c2ccc(C(C)=O)cc2)C(=O)O1	8 µg/mL (≈ 26.3 µM)	8 µg/mL (≈ 26.3 µM)	–	–
CC(=O)c1ccc(N2CC(CN3CCOCC3)OC2=O)cc1 (stereo not given)	> 128 µg/mL	> 128 µg/mL	–	–
CS(=O)(=O)c1ccc(N2CC(CN=[N+]=[N-])OC2=O)cc1 (stereo not given)	8 µg/mL (≈ 27 µM)	16 µg/mL (≈ 54 µM)	–	–
